test system: HCC1143; experiment: not given; conditions: 72 h
Summary of the method: (§1)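 Breast cancer cell lines in 20 µl suspension were seeded onto 384-well plates that already held compound dissolved in 5 µl medium and were incubated for 72 h. Viability was measured by adding 2.5 µl CellTiter-Blue for 2 h at 37 °C and reading fluorescence at 560/590 nm. Each plate was normalised to vehicle and a positive kill control and checked by Z'-factor. EC50 was taken from a fitted percent-inhibition dose-response curve, censored at the highest concentration, and rows with a drug sensitivity score of zero were removed.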

EC50, CellTiter-Blue viability	SMILES
32.2 nM	CCNC(=O)c1noc(-c2cc(C(C)C)c(O)cc2O)c1-c1ccc(CN2CCOCC2)cc1 [NVP-AUY922]
> 10000 nM	CC[C@H](CO)Nc1nc(NCc2ccccc2)c2ncn(C(C)C)c2n1 [Roscovitine]
2590 nM	O=C(CCCCCCC(=O)Nc1ccccc1)NO [Vorinostat]

test system: HCC1937; experiment: not given; conditions: 72 h
Summary of the method: as §1

EC50, CellTiter-Blue viability	SMILES
349 nM	COc1ccc(S(=O)(=O)Nc2cccnc2Nc2ccc(O)cc2)cc1 [ABT-751]
1370 nM	CNC(=O)c1ccccc1Sc1ccc2c(/C=C/c3ccccn3)n[nH]c2c1 [Axitinib]
2670 nM	COc1cc(Nc2c(C#N)cnc3cc(OCCCN4CCN(C)CC4)c(OC)cc23)c(Cl)cc1Cl [Bosutinib]
20.5 nM	Nc1ccn([C@@H]2O[C@H](CO)[C@@H](O)C2(F)F)c(=O)n1 [Gemcitabine]
5.47 nM	CC(=O)[C@]1(O)Cc2c(O)c3c(c(O)c2[C@@H](O[C@H]2C[C@H](N)[C@H](O)[C@H](C)O2)C1)C(=O)c1ccccc1C3=O [Idarubicin]
371 nM	C/C(=C\c1csc(C)n1)[C@@H]1C[C@@H]2O[C@]2(C)CCC[C@H](C)[C@H](O)[C@@H](C)C(=O)C(C)(C)[C@@H](O)CC(=O)N1 [Ixabepilone]
190 nM	C=CCn1c(=O)c2cnc(Nc3ccc(N4CCN(C)CC4)cc3)nc2n1-c1cccc(C(C)(C)O)n1 [MK1775]
237 nM	CO[C@@H]1[C@H](N(C)C(=O)c2ccccc2)C[C@H]2O[C@]1(C)n1c3ccccc3c3c4c(c5c6ccccc6n2c5c31)C(=O)NC4 [Midostaurin]
360 nM	CO[C@@]12[C@H](COC(N)=O)C3=C(C(=O)C(C)=C(N)C3=O)N1C[C@@H]1N[C@@H]12 [Mitomycin C]
0.76 nM	CCNC(=O)c1noc(-c2cc(C(C)C)c(O)cc2O)c1-c1ccc(CN2CCOCC2)cc1 [NVP-AUY922]
2480 nM	O=C(CCCCCCC(=O)Nc1ccccc1)NO [Vorinostat]

SMILES	EC50, CellTiter-Blue viability
Cn1cc(C2=C(c3cn(C4CCN(Cc5ccccn5)CC4)c4ccccc34)C(=O)NC2=O)c2ccccc21 [Enzastaurin]	5370 nM

test system: BT-549; experiment: not given; conditions: 72 h
Summary of the method: as §1

EC50, CellTiter-Blue viability	SMILES
2470 nM	COc1ccc(S(=O)(=O)Nc2cccnc2Nc2ccc(O)cc2)cc1 [ABT-751]
2180 nM	CNC(=O)c1ccccc1Sc1ccc2c(/C=C/c3ccccn3)n[nH]c2c1 [Axitinib]
3360 nM	COc1cc(Nc2c(C#N)cnc3cc(OCCCN4CCN(C)CC4)c(OC)cc23)c(Cl)cc1Cl [Bosutinib]
19.1 nM	Nc1ccn([C@@H]2O[C@H](CO)[C@@H](O)C2(F)F)c(=O)n1 [Gemcitabine]
91.5 nM	CC(=O)[C@]1(O)Cc2c(O)c3c(c(O)c2[C@@H](O[C@H]2C[C@H](N)[C@H](O)[C@H](C)O2)C1)C(=O)c1ccccc1C3=O [Idarubicin]
510 nM	C/C(=C\c1csc(C)n1)[C@@H]1C[C@@H]2O[C@]2(C)CCC[C@H](C)[C@H](O)[C@@H](C)C(=O)C(C)(C)[C@@H](O)CC(=O)N1 [Ixabepilone]
569 nM	C=CCn1c(=O)c2cnc(Nc3ccc(N4CCN(C)CC4)cc3)nc2n1-c1cccc(C(C)(C)O)n1 [MK1775]
1490 nM	CO[C@@H]1[C@H](N(C)C(=O)c2ccccc2)C[C@H]2O[C@]1(C)n1c3ccccc3c3c4c(c5c6ccccc6n2c5c31)C(=O)NC4 [Midostaurin]
2970 nM	CO[C@@]12[C@H](COC(N)=O)C3=C(C(=O)C(C)=C(N)C3=O)N1C[C@@H]1N[C@@H]12 [Mitomycin C]
5.61 nM	CCNC(=O)c1noc(-c2cc(C(C)C)c(O)cc2O)c1-c1ccc(CN2CCOCC2)cc1 [NVP-AUY922]
373 nM	CC1(C)CCC(c2ccc(Cl)cc2)=C(CN2CCN(c3ccc(C(=O)NS(=O)(=O)c4ccc(N[C@H](CCN5CCOCC5)CSc5ccccc5)c(S(=O)(=O)C(F)(F)F)c4)cc3)CC2)C1 [Navitoclax]
684 nM	CC[C@H](CO)Nc1nc(NCc2ccccc2)c2ncn(C(C)C)c2n1 [Roscovitine]
2860 nM	O=C(CCCCCCC(=O)Nc1ccccc1)NO [Vorinostat]

SMILES	EC50, CellTiter-Blue viability
Cn1cc(C2=C(c3cn(C4CCN(Cc5ccccn5)CC4)c4ccccc34)C(=O)NC2=O)c2ccccc21 [Enzastaurin]	857 nM

test system: MDA-MB-231; experiment: not given; conditions: 72 h
Summary of the method: as §1

EC50, CellTiter-Blue viability	SMILES
376 nM	COc1ccc(S(=O)(=O)Nc2cccnc2Nc2ccc(O)cc2)cc1 [ABT-751]
1170 nM	CNC(=O)c1ccccc1Sc1ccc2c(/C=C/c3ccccn3)n[nH]c2c1 [Axitinib]
2410 nM	COc1cc(Nc2c(C#N)cnc3cc(OCCCN4CCN(C)CC4)c(OC)cc23)c(Cl)cc1Cl [Bosutinib]
4.41 nM	Nc1ccn([C@@H]2O[C@H](CO)[C@@H](O)C2(F)F)c(=O)n1 [Gemcitabine]
79.6 nM	CC(=O)[C@]1(O)Cc2c(O)c3c(c(O)c2[C@@H](O[C@H]2C[C@H](N)[C@H](O)[C@H](C)O2)C1)C(=O)c1ccccc1C3=O [Idarubicin]
84.3 nM	C/C(=C\c1csc(C)n1)[C@@H]1C[C@@H]2O[C@]2(C)CCC[C@H](C)[C@H](O)[C@@H](C)C(=O)C(C)(C)[C@@H](O)CC(=O)N1 [Ixabepilone]
303 nM	C=CCn1c(=O)c2cnc(Nc3ccc(N4CCN(C)CC4)cc3)nc2n1-c1cccc(C(C)(C)O)n1 [MK1775]
477 nM	CO[C@@H]1[C@H](N(C)C(=O)c2ccccc2)C[C@H]2O[C@]1(C)n1c3ccccc3c3c4c(c5c6ccccc6n2c5c31)C(=O)NC4 [Midostaurin]
1080 nM	CO[C@@]12[C@H](COC(N)=O)C3=C(C(=O)C(C)=C(N)C3=O)N1C[C@@H]1N[C@@H]12 [Mitomycin C]
6.7 nM	CCNC(=O)c1noc(-c2cc(C(C)C)c(O)cc2O)c1-c1ccc(CN2CCOCC2)cc1 [NVP-AUY922]
614 nM	CC1(C)CCC(c2ccc(Cl)cc2)=C(CN2CCN(c3ccc(C(=O)NS(=O)(=O)c4ccc(N[C@H](CCN5CCOCC5)CSc5ccccc5)c(S(=O)(=O)C(F)(F)F)c4)cc3)CC2)C1 [Navitoclax]
3110 nM	O=C(CCCCCCC(=O)Nc1ccccc1)NO [Vorinostat]

test system: DU-4475; experiment: drug sensitivity score (DSS), CellTiter-Glo (DSS (AUC-based score)); higher = stronger drug effect (viability inhibition or cytotoxicity); extreme values may be limits of the assay; conditions: incubation time: 72 h
Summary of the method: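 Breast cancer cell lines (20 µl suspension) were seeded into 384-well plates holding compound at 5 concentrations in 10-fold steps over a compound-specific 10,000-fold range, then incubated 72 h. CellTox Green fluorescence (485/520 nm) was read first, then CellTiter-Glo luminescence after 10 min at room temperature. Each plate was normalised to 0.1 % DMSO and a positive kill control. The drug sensitivity score was calculated from the area under the fitted dose-response curve.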

SMILES	drug sensitivity score
COc1ccc(S(=O)(=O)Nc2cccnc2Nc2ccc(O)cc2)cc1 [ABT-751]	5.29
CNC(=O)c1ccccc1Sc1ccc2c(/C=C/c3ccccn3)n[nH]c2c1 [Axitinib]	0
COc1cc(Nc2c(C#N)cnc3cc(OCCCN4CCN(C)CC4)c(OC)cc23)c(Cl)cc1Cl [Bosutinib]	0
Cn1cc(C2=C(c3cn(C4CCN(Cc5ccccn5)CC4)c4ccccc34)C(=O)NC2=O)c2ccccc21 [Enzastaurin]	0
Nc1ccn([C@@H]2O[C@H](CO)[C@@H](O)C2(F)F)c(=O)n1 [Gemcitabine]	4.13

Source: the supplement of paper PMC4862054
